# Measurements from article PMC11742280, “A phase I study of MLN4924 and belinostat in relapsed/refractory acute myeloid leukemia or myelodysplastic syndrome” (Cancer Chemotherapy and Pharmacology, 2025).
# Read-outs that look alike come from different tables or passages of the source.
# How the values were obtained:
# [1] = Plasma pharmacokinetics of pevonedistat (LC/MS/MS, noncompartmental analysis); type: in vivo, human; details: for Cmax: read-out: preEOI Cmax (peak plasma concentration); for clearance: read-out: Cl (systemic clearance) (converted)
# Procedure: Plasma was stored at − 80 °C until analysis.
# Pharmacokinetic parameters were summarized using descriptive statistics.
# high-risk MDS = system: high-risk MDS; parameters: method as in PMID 35728048; details: pevonedistat 20 mg/m^2 D1,3,5 in combination with azacitidine; subset with high-risk MDS, post-hoc analysis, non-statistically significant improvement; cited from earlier work
# [2] = parameters: method as in PMID 31097586, PMID 33441097; details: e.g. value, compared with clinical Cmax; cited from earlier work
# AML = system: AML; parameters: method as in PMID 25733005; details: cited from earlier work
# [3] = system: xenograft models of solid tumors, lymphoma, and AML; parameters: method as in PMID 20203261, PMID 20525923, PMID 23633453, PMID 22562464; details: cited from earlier work
# [4] = cycle 1 day 1, dose level 1, pevonedistat 20 mg/m^2 IV (belinostat 800 mg/m^2), n=2, actual values
# [5] = human, plasma, iv, 37 mg/m2, cycle 1 day 1, pevonedistat 37 mg/m^2 IV, all 37 mg/m^2 patients (dose levels 3-4), mean±SD, n=6
# [6] = human, plasma, iv, cycle 1 day 1, dose level 1, pevonedistat 20 mg/m^2 IV (belinostat 800 mg/m^2), n=2, actual values
# [7] = human, plasma, iv, cycle 1 day 1, dose level 2, pevonedistat 25 mg/m^2 IV (belinostat 800 mg/m^2), mean±SD, n=3
# [8] = human, plasma, iv, cycle 1 day 1, dose level 3, pevonedistat 37 mg/m^2 IV (belinostat 800 mg/m^2), mean±SD, n=3
# [9] = human, plasma, iv, cycle 1 day 1, dose level 4, pevonedistat 37 mg/m^2 IV (belinostat 1000 mg/m^2), mean±SD, n=3
structure (smiles),measurement,setting,value
NS(=O)(=O)OC[C@@H]1C[C@@H](n2ccc3c(N[C@H]4CCc5ccccc54)ncnc32)C[C@@H]1O [Pevonedistat],Pevonedistat AUCINF by BSA-based dose,"[1]; 37 mg/m^2 compared with 20 or 25 mg/m^2, p = 0.02, Kruskal–Wallis",significantly higher
same,AUCINF,[1]; [4],2.85 µM·h
same,Cl (systemic clearance),[1]; [4],28.5 L/h
same,T1/2,[1]; [4],6.12 h
same,Cmax,[1]; [4],311 nM
same,Cl (systemic clearance),"[1]; cycle 1 day 1, dose level 3, pevonedistat 37 mg/m^2 IV (belinostat 800 mg/m^2), mean±SD, n=3",34.9 ± 2.9 (3) L/hr
same,Cl (systemic clearance),"[1]; cycle 1 day 1, dose level 4, pevonedistat 37 mg/m^2 IV (belinostat 1000 mg/m^2), mean±SD, n=3",35.5 ± 8.3 (3) L/hr
same,Cl (systemic clearance),"[1]; cycle 1 day 1, pevonedistat 37 mg/m^2 IV, all 37 mg/m^2 patients (dose levels 3-4), mean±SD, n=6",35.2 ± 5.6 (6) L/hr
same,Pharmacokinetic parameters compared between dose levels,"[1]; dose levels 1-4, Kruskal–Wallis",not different by dose level
same,AUC(0-inf),[1]; [5],4.78 ± 0.958 µM·h
same,half-life,[1]; [5],5.79 ± 0.99 h
same,Cmax,[1]; [5],869 ± 290 nM
same,Tmax,"[1]; human, plasma, iv, 37 mg/m2, cycle 1 day 1, pevonedistat 37 mg/m^2 IV, all 37 mg/m^2 patients (dose levels 3-4), median (range; n)",0.9 h
same,AUC(0-inf),[1]; [6],2.28 µM·h
same,Tmax,[1]; [6],0.4 h
same,half-life,[1]; [6],5.89 h
same,clearance,[1]; [6],627 mL/min
same,Cmax,[1]; [6],278 nM
same,AUC(0-inf),[1]; [7],2.95 ± 0.666 µM·h
same,half-life,[1]; [7],6.52 ± 1.38 h
same,clearance,[1]; [7],625 mL/min
same,Cmax,[1]; [7],372 ± 93.2 nM
same,Tmax,"[1]; human, plasma, iv, cycle 1 day 1, dose level 2, pevonedistat 25 mg/m^2 IV (belinostat 800 mg/m^2), median (range; n)",0.6 h
same,AUC(0-inf),[1]; [8],4.95 ± 0.426 µM·h
same,half-life,[1]; [8],5.97 ± 0.34 h
same,Cmax,[1]; [8],897 ± 26 nM
same,Tmax,"[1]; human, plasma, iv, cycle 1 day 1, dose level 3, pevonedistat 37 mg/m^2 IV (belinostat 800 mg/m^2), median (range; n)",0.9 h
same,AUC(0-inf),[1]; [9],4.6 ± 1.42 µM·h
same,half-life,[1]; [9],5.61 ± 1.5 h
same,Cmax,[1]; [9],841 ± 455 nM
same,Tmax,"[1]; human, plasma, iv, cycle 1 day 1, dose level 4, pevonedistat 37 mg/m^2 IV (belinostat 1000 mg/m^2), median (range; n)",1 h
same,Survival,high-risk MDS,23.8 mos
same,Concentrations shown to exert activity in preclinical studies,[2],100 to 200 nM
same,Complete remission (CR) + partial remission (PR),AML; single agent in AML,17%
same,Maximum Tolerated Dose,"AML; single agent, D1,3,5 dosing schedule in a 21-day cycle",59 mg/m^2
same,Effect on tumor growth,[3],inhibition of tumor growth
